The structures appear in SMILES notation.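 Assay format: 96-well plates, 48-hour exposure. GI50: concentration for 50% inhibition of growth. TGI is the concentration that stops growth completely.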

This note sets out measurements from PubChem BioAssay (NCI).

Some test systems named below: A549 NSCLC; ACHN renal; EKVX NSCLC; HS 578T breast; MCF7 breast; MDA-MB-435; NCI-H226 lung; OVCAR-8 ovarian; U251 CNS; MALME-3M melanoma.
What all share (assay): NCI-60 cell line screen, 48 h

For the molecule `COc1ccc(OC)c(/C=C/C(=O)c2ccc3cc(OC)ccc3c2)c1`, the GI50 with A549 NSCLC was 9.52 µM; in the test with EKVX NSCLC, over 12.3 µM; with HS 578T breast, over 33.3 µM; in the test on MCF7 breast, 11.4 µM; in the test with MDA-MB-435, 0.641 µM; with NCI-H226 lung, over 50 µM. The GI50 in the test on U251 CNS is 7.19 µM. The TGI in the test with A549 NSCLC was over 32.4 µM; in the test with ACHN renal, over 32.9 µM; in the test with EKVX NSCLC, over 50 µM; in the test on HS 578T breast, over 50 µM; in the test with MCF7 breast, over 50 µM; in the test with MDA-MB-435 it was 1.88 µM. The TGI in the test on NCI-H226 lung is over 50 µM; in the test with OVCAR-8 ovarian, over 11.9 µM; in the test with U251 CNS it was over 50 µM.

For the molecule `COc1cc[nH]c1/C=C1\C(=O)Nc2ccc([N+](=O)[O-])c(N3CC[C@@H](O)C3)c21`, the GI50 with A549 NSCLC was 0.167 µM; in the test with ACHN renal it was 0.0804 µM; in the test with HS 578T breast, 0.353 µM; in the test on MALME-3M melanoma, 0.921 µM; in the test with MCF7 breast, 0.121 µM; in the test on MDA-MB-435 it was 0.271 µM. Besides, the GI50 is 0.169 µM in the test with NCI-H226 lung, 0.278 µM in the test on OVCAR-8 ovarian and 0.172 µM with U251 CNS. Besides, the TGI is 2.18 µM with A549 NSCLC; 2 µM in the test on ACHN renal; 6.33 µM in the test on HS 578T breast; 1.97 µM with MALME-3M melanoma; 2.85 µM with MCF7 breast; 0.907 µM in the test on MDA-MB-435. The figures for the TGI in the test on NCI-H226 lung, in the test with OVCAR-8 ovarian and in the test with U251 CNS were 1.69 µM, 3.46 µM and 2.07 µM, respectively.

On to `CNCC1CCn2c(c(C3=C(c4cn(C)c5ccccc45)C(=O)NC3=O)c3ccccc32)C1` (stereo not drawn), for which the GI50 in the test with A549 NSCLC is 3.16 µM; in the test on ACHN renal it was 3.62 µM; in the test on HS 578T breast it was 2.9 µM; with MALME-3M melanoma, 2.13 µM; in the test with MCF7 breast, 1.74 µM; in the test with MDA-MB-435 it was 2.75 µM. Moreover, the GI50 in the test on NCI-H226 lung is 3.23 µM; with OVCAR-8 ovarian, 3.87 µM; with U251 CNS, 2.64 µM. Further, the TGI is 10.6 µM with A549 NSCLC; 13.1 µM with ACHN renal; 8.7 µM with HS 578T breast; 5.52 µM in the test on MALME-3M melanoma; 5.17 µM in the test on MCF7 breast; 5.94 µM in the test with MDA-MB-435. Further, the TGI with NCI-H226 lung came out at 14.2 µM; in the test with OVCAR-8 ovarian, 10.4 µM; in the test with U251 CNS, 5.91 µM.

As to `O=S1(=O)C=C(c2ccccc2)C(c2ccccc2)=C1`, the GI50 with A549 NSCLC was 2.13 µM; in the test with ACHN renal it was 1.55 µM; with EKVX NSCLC it was 2.08 µM; in the test on HS 578T breast it was 1.18 µM; with MALME-3M melanoma, 1.93 µM; in the test on MDA-MB-435 it was 1.41 µM. Further, the GI50 in the test with NCI-H226 lung was 1.68 µM; in the test on OVCAR-8 ovarian, 1.56 µM; in the test on U251 CNS it was 1.54 µM. Moreover, the TGI was 5.11 µM with A549 NSCLC; 2.88 µM in the test on ACHN renal; 6.21 µM in the test with EKVX NSCLC; 3.5 µM in the test on HS 578T breast; 4.72 µM in the test on MALME-3M melanoma; 3.33 µM in the test with MDA-MB-435. Moreover, the figures for the TGI in the test on NCI-H226 lung, in the test with OVCAR-8 ovarian and in the test on U251 CNS were 3.34 µM, 3.19 µM and 2.88 µM, respectively.

`COc1ccc2c(c1)O/C(=C\c1ccc([N+](=O)[O-])s1)C2=O`: the GI50 is 3.46 µM with A549 NSCLC; 1.41 µM with ACHN renal; 2.61 µM in the test on HS 578T breast; 4.99 µM with MALME-3M melanoma; 0.621 µM in the test on MCF7 breast; over 100 µM in the test with MDA-MB-435. Besides, the GI50 in the test with NCI-H226 lung is over 31.3 µM; with OVCAR-8 ovarian it was 2.19 µM; in the test on U251 CNS it was 2.07 µM. Further, the TGI with A549 NSCLC is over 100 µM; with ACHN renal it was over 100 µM; in the test with HS 578T breast, over 25.2 µM; with MALME-3M melanoma, over 100 µM; in the test with MCF7 breast it was over 100 µM; in the test with MDA-MB-435, over 100 µM. The TGI in the test with NCI-H226 lung was over 100 µM; in the test on OVCAR-8 ovarian, over 100 µM; in the test on U251 CNS it was over 20.9 µM.

With `COc1cc(OC)c2c(c1Cl)O[C@]1(C2=O)C(OCc2ccccc2)=CC(=O)C[C@H]1C`, the GI50 with A549 NSCLC is 0.769 µM; in the test with ACHN renal it was 0.785 µM; in the test with HS 578T breast, 3.17 µM; in the test on MALME-3M melanoma, 12 µM; with MCF7 breast, 0.395 µM; in the test with MDA-MB-435, 0.23 µM. The GI50 in the test on NCI-H226 lung is 4.18 µM; in the test on OVCAR-8 ovarian it was 1.02 µM. For the same molecule, the TGI in the test with A549 NSCLC is over 100 µM; in the test on ACHN renal, over 100 µM; with HS 578T breast, 32.5 µM; in the test on MALME-3M melanoma, 55.8 µM; in the test with MCF7 breast it was 25.9 µM; in the test with MDA-MB-435 it was 0.549 µM. The TGI in the test on NCI-H226 lung was 30.2 µM; in the test with OVCAR-8 ovarian, 29.4 µM.

In the case of `Nc1nc(N)c(-c2ccc(Cl)cc2)c(/C=C/c2ccc([N+](=O)[O-])cc2)n1`, the GI50 with A549 NSCLC is 3.1 µM; with ACHN renal, 3.85 µM; in the test with HS 578T breast, 9.97 µM; in the test with MCF7 breast it was 3.16 µM; in the test with MDA-MB-435, 4.44 µM; in the test on NCI-H226 lung it was 20.3 µM. Further, the GI50 with OVCAR-8 ovarian is 4.77 µM; in the test with U251 CNS, 3.99 µM. The TGI with A549 NSCLC is 47.8 µM; in the test on ACHN renal, over 100 µM; in the test with HS 578T breast, over 100 µM; with MCF7 breast it was over 100 µM; with MDA-MB-435 it was over 100 µM; in the test on NCI-H226 lung, over 100 µM. In addition, the TGI in the test with OVCAR-8 ovarian was over 100 µM; in the test with U251 CNS it was 23.8 µM.

As to `COn1cc(C(=O)N=C(SC)SC)c2ccccc21`, the GI50 with A549 NSCLC is 23.9 µM; with ACHN renal it was 22 µM; in the test with EKVX NSCLC, 25 µM; in the test with HS 578T breast, 16.7 µM; with MCF7 breast, over 100 µM; in the test with MDA-MB-435, 14 µM. In addition, the GI50 was 14.1 µM in the test with NCI-H226 lung, 18.5 µM in the test with OVCAR-8 ovarian and 22.3 µM in the test on U251 CNS. Further, the TGI is 87.6 µM with A549 NSCLC; 47.7 µM in the test on ACHN renal; 77.5 µM in the test with EKVX NSCLC; 54.3 µM in the test on HS 578T breast; over 100 µM in the test on MCF7 breast; 39.7 µM with MDA-MB-435. Further, the TGI with NCI-H226 lung is 51.2 µM; with OVCAR-8 ovarian it was 55.5 µM; in the test with U251 CNS, 70.6 µM.

As for `COc1cc2c3c(n(CCCN4CCN(CCO)CC4)c(=O)c2cc1OC)-c1cc2c(cc1C3=O)OCO2`, the GI50 in the test with A549 NSCLC was 4.23 µM; in the test on ACHN renal, 8.54 µM; in the test with HS 578T breast, over 100 µM; in the test with MALME-3M melanoma it was 15.3 µM; in the test on MCF7 breast, 0.873 µM; in the test with MDA-MB-435, over 100 µM. Moreover, the figures for the GI50 in the test on NCI-H226 lung, in the test with OVCAR-8 ovarian and in the test on U251 CNS were 7.49 µM, 7.62 µM and over 33.7 µM, respectively. Besides, the TGI in the test with A549 NSCLC was 20.7 µM; with ACHN renal, over 44.4 µM; in the test on HS 578T breast, over 100 µM; in the test with MALME-3M melanoma it was 31 µM; with MCF7 breast it was 17.5 µM; in the test on MDA-MB-435 it was over 100 µM. The figures for the TGI with NCI-H226 lung, with OVCAR-8 ovarian and in the test with U251 CNS were 28.4 µM, 28.3 µM and over 48.6 µM, respectively.

For the molecule `CCCNC(=O)Nc1ccc2c(c1)Cc1cc(N(CCCl)CCCl)ccc1-2`, the TGI in the test on A549 NSCLC is over 100 µM; with ACHN renal, 33.8 µM; in the test on EKVX NSCLC, 77.4 µM; in the test with HS 578T breast, 61.4 µM; in the test with MALME-3M melanoma it was over 100 µM; in the test on MCF7 breast, 77.5 µM. Besides, the TGI is 68.9 µM with MDA-MB-435, over 100 µM in the test on OVCAR-8 ovarian and over 100 µM in the test with U251 CNS.

On to `Nc1nc(Cl)c2ncn(Cc3ccc(-c4ccc(CCl)cc4)cc3)c2n1`, for which the GI50 in the test with A549 NSCLC was 19.3 µM; with ACHN renal, 4.5 µM; with EKVX NSCLC, 10.6 µM; in the test with HS 578T breast, 43.4 µM; with MCF7 breast, 7.31 µM; with MDA-MB-435, 14.6 µM. The GI50 with NCI-H226 lung is 3.47 µM; with OVCAR-8 ovarian, 7.86 µM. Besides, the TGI was over 100 µM with A549 NSCLC; over 100 µM in the test with ACHN renal; 40.1 µM in the test with EKVX NSCLC; over 100 µM in the test with HS 578T breast; 71.7 µM in the test on MCF7 breast; 36.3 µM in the test with MDA-MB-435. Also, the values for the TGI with NCI-H226 lung and with OVCAR-8 ovarian were 17.9 µM and 29.5 µM, respectively.

For the molecule `CC1CC2(C)CC(=O)C1C1C(=O)N(CCN3CCOCC3)C(=O)C12` (stereo not drawn), the GI50 in the test with A549 NSCLC, in the test with ACHN renal, in the test with EKVX NSCLC, in the test with HS 578T breast, in the test on MALME-3M melanoma and in the test on MDA-MB-435 was over 100 µM throughout. Besides, the GI50 with NCI-H226 lung, in the test on OVCAR-8 ovarian and in the test on U251 CNS was over 100 µM throughout. The TGI in the test on A549 NSCLC, in the test on ACHN renal, in the test with EKVX NSCLC, with HS 578T breast, in the test with MALME-3M melanoma and in the test with MDA-MB-435 was over 100 µM in each case. Also, the TGI with NCI-H226 lung, with OVCAR-8 ovarian and in the test with U251 CNS was over 100 µM each time.

Consider `N#CC1C(=O)NC(=O)C(C#N)C1c1ccc(Cl)c(Cl)c1` (stereo not drawn), for which the TGI was over 100 µM in the test on A549 NSCLC; 50.9 µM with ACHN renal; over 100 µM with EKVX NSCLC; 65.6 µM in the test on HS 578T breast; over 100 µM with MALME-3M melanoma; over 100 µM in the test with MCF7 breast. For the same molecule, the TGI was 49 µM with MDA-MB-435, over 100 µM with OVCAR-8 ovarian and 51.5 µM in the test on U251 CNS.
